Assay results published in patent publication US20100190737A1, “COMPOSITIONS COMPRISING INOSINE AND OROTIC ACID AND METHODS OF USE THEREOF FOR THE TREATMENT OF CERTAIN HEART CONDITIONS AND ENHANCEMENT OF WORK CAPACITY” (NUTRITIONAL RESEARCH GROUP LLC, priority 2009, published 2010).

How the values were obtained:
[1] = test system: rats with experimental aortic stenosis; experiment: Short term (7 day) experimental aortic stenosis: heart weight and swimming to exhaustion; format: in vivo, rat; conditions: EAS rats; for Heart Weight: intragastric daily
Text: There are two 7 day experiments in this portion of the study; a preliminary 7 day study with 54 rats in 9 groups (6 rats per group) to determine optimal dosage levels for the separate inosine or potassium orotate ingredients for farther experimentation by determination of maximal heart weight development and work capacity; and then a study with 30 rats in 5 groups (6 rats per group) using the optimal single ingredient dosage levels for comparison with the results of a composition of the ingredients. All compounds were administered intragastrically through a tube after being dissolved in approximately 1 ml of water.
A single control group received a sham operation, while the rest of the groups received experimental aortic stenosis (“EAS”) operations (all according to Beznak in Journal Physiol. (Lond.) 120.23P, 1953 as modified by Kogan, Bull eksper. Biol. Med., 26:112, 1961 and then the other 13 groups received various treatments and dosages of inosine or potassium orotate or a composition of the two ingredients after the optimal inosine and potassium orotate dosages were determined. All animals were tested at the beginning and end of the experiment for swimming to exhaustion times with a 7.5% body weight load attached to their tails.
Sach compound, i.e., inosine and potassium orotate, was administered at different doses and the level of heart hypertrophy and work capacity was observed. Each of the compounds was evaluated in four doses: 12.5 mg/kg, 25 mg/kg, 50 mg/kg and 100 mg/kg body weight. Six animals were used in each group for inosine [4 groups] and potassium orotate [4 groups] plus the one control group (sham operated, no treatment); 54 animals in total.
Thirty white rats were divided into 5 groups (6 animals in each group). Group I was a sham-operated control group, Group II animals with experimental aortic stenosis but were untreated, Groups III, IV & V animals, all with experimental aortic stenosis received by an intragastric tube each day, either inosine (25 mg/kg body weight), potassium orotate (50 mg/kg body weight) or an composition of inosine (25 mg/kg body weight) plus potassium orotate (50 mg/kg body weight), respectively.

[2] = test system: white rats; experiment: Long-term (6 months) work capacity in trained and non-trained rats; conditions: for Glycogen in m. quadriceps, After work / Glycogen in m. quadriceps, In rest: end of experiments; for Swimming time After 6 mo.: INO 25 mg/kg, PO 50 mg/kg
Description: Seventy two white rats were randomly placed in 6 groups (12 animals each), to test the effectiveness of training and to determine morphological and physiological alterations in the rats. In Group I, control rats were nontrained and not administered either of inosine or the combination of inosine and orotate; Group II comprised non-trained rats to which were administered inosine (25 mg/kg/body weight; Group III comprised non-trained rats to which were administered the combination of inosine plus potassium orotate (25 mg/kg/body weight of inosine and 50 mg/kg/body weight potassium orotate); Group IV comprised trained rats that were not administered either of inosine or the combination of inosine and orotate; Group V comprised trained rats to which was administered inosine alone (25 mg/kg/body weight), and Group VI comprised trained rats to which was administered the combination of inosine plus potassium orotate (25 mg/kg/body weight of inosine and 50 mg/kg/body weight potassium orotate).
Training of rats consisted of their forced swimming in a water bath (28-30° C.) with a weight fixed on their backs (7.5% of the rat body weight). During the first two weeks the animals swam daily for 5-10 minutes, after which we determined the individual maximum time of swimming to exhaustion (i.e. maximum work capacity) for each animal and then calculated the mean maximum time for each group. After 2 weeks these initial maximum work capacity values were used for planning and performing additional swimming training.
The functional condition of the rats at rest was estimated from their work capacity (maximum swimming time), body weight increase, EKG tests, oxygen consumption and sodium and potassium levels in the myocardium in a relatively quiet state. The morphological state of the heart and other viscera were rated from their absolute and relative weights, and also from histological and histochemical examinations of the myocardium. Also determined were the amounts of glycogen in the m. quadriceps (quadriceps group of muscles) of the hip, the myocardium and the liver. All the quantitative results obtained were processed with conventional statistical procedures.

[3] = test system: mice; experiment: Short term (14 day) work capacity: swimming lengths within 30 minutes, hepatic glycogen; format: in vivo, mouse
Description: Seventy two animals (mice) were divided into 12 groups of 6 animals each; a control group (untreated) and 11 test groups that were intragastrically administered varying daily doses of inosine, potassium orotate or an inosine plus potassium orotate combination (the “combination”) for 14 days. […] The swimming exercise consisted of forcing the animals to perform repetitive swimming in a three meter long channel until exhaustion. The level of exhaustion was determined by a count of the number of swimming lengths which each animal did within 30 minutes. A lower number of swimming lengths indicated a greater level of exhaustion, whereas a higher number of lengths indicated a greater work capacity.

[4] = seventh day, inosine 25 mg/kg BW, potassium orotate 50 mg/kg BW, alone or together
[5] = seventh day, inosine 25 mg/kg BW, potassium orotate 50 mg/kg BW, alone or together, listed as Inosine

`OC[C@H]1O[C@@H](n2cnc3c(O)ncnc32)[C@H](O)[C@@H]1O` [inosine] gave a swimming time ([1]; day 7, 12.5 mg/kg intragastrically, EAS control 15±5.0, sham 62±5.0) of 18 ± 2.0 min, a swimming time ([1]; day 7, 25 mg/kg) of 28 ± 3.0 min and a swimming time ([1]; day 7, 50 mg/kg) of 29 ± 3.0 min. The swimming time ([1]; day 7, 100 mg/kg) was 27.0 ± 3.0 min, the relative heart weight ([1]; seventh day, 12.5 mg/kg, EAS control 400±8.9, sham 300±5.0) was 410±9.0 mg/100 g. body weight and the relative heart weight ([1]; seventh day, 25 mg/kg) was 440±12 mg/100 g. body weight. The relative heart weight ([1]; seventh day, 50 mg/kg) was 442±12 mg/100 g. body weight, the relative heart weight ([1]; seventh day, 100 mg/kg) was 440±10 mg/100 g. body weight and the “swimming time” value [1, 4] was 31 ± 3.0 min. The “Heart Weight” value [1, 4] was 450±12 mg/100 gr BW, the “Heart Weight” value [1, 5] was 450 ± 12 mg/100 gr BW and the “swimming time” value [1, 5] was 31 ± 3.0 min. The animal body weights ([2]; after 6 months) was “did not materially alter animal body weights”, the “HEART RATE” value ([2]; after 6 months training) was 300 ± 5.2 beats per minute and the PQ ([2]; after 6 months training) was 0.047 ± 0.03. For the same compound, the QRS ([2]; after 6 months training) was 0.031 ± 0.004, the QT ([2]; after 6 months training) was 0.076 ± 0.001 and the “Systolic Index” value ([2]; after 6 months training) was 38 ± 6.3. For the same compound, the ΣR ([2]; after 6 months training) was 17 ± 0.5 mm, the “toxic effects on the functional state of the animals, morphology of the myocardium” value ([2]; rat, in vivo) was “did not manifest any toxic effects” and the “Heart weight after 6 mo.” value ([2]; trained rats) was 359 ± 3.9 mg/100gk BW. For the same compound, the “ORGAN WEIGHT Heart” value ([2]; trained rats) was 359.3 ± 4.5 mg PER 100 GRAMs Body Weight, the “P/S In all rats group” value ([2]; trained rats) was 1.34 ± 0.12 and the “P/S In quiet state” value ([2]; trained rats) was 1.16 ± 0.08. For the same compound, the “P/S In rat sacrificed after intense physical exercise” value ([2]; trained rats) was 1.55 ± 0.04, the “Potassium (myocardium)” value ([2]; trained rats) was 0408 ± 0.015 mcq/gram dry tissue and the “Sodium (myocardium)” value ([2]; trained rats) was 0.304 ± 0.018 mcq/gram dry tissue. For the same compound, the “Swimming time Before” value ([2]; trained rats) was 65 ± 6.6 min, the “Glycogen in m. quadriceps, After work” value ([2]; trained rats) was 558 ± 13.4 and the “Glycogen in m. quadriceps, In rest” value ([2]; trained rats) was 889 ± 26.0. The “Swimming time After 6 mo.” value ([2]; trained rats, trained control 142 ± 2.4) was 180 ± 3.4 min, the “Heart weight after 6 mo.” value ([2]; untrained rats) was 302 ± 91 mg/100gk BW and the “ORGAN WEIGHT Heart” value ([2]; untrained rats) was 309.4 ± 9.7 mg PER 100 GRAMs Body Weight. The “Oxygen consumption End of experiment” value ([2]; untrained rats) was 26.0 ± 0.82 ml/min/kg BW, the “P/S In all rats group” value ([2]; untrained rats) was 1.85 ± 0.05 and the “P/S In quiet state” value ([2]; untrained rats) was 2.01 ± 0.3. The “P/S In rat sacrificed after intense physical exercise” value ([2]; untrained rats) was 1.67 ± 0.09, the “Potassium (myocardium)” value ([2]; untrained rats) was 0481 ± 0.03 mcq/gram dry tissue and the “Sodium (myocardium)” value ([2]; untrained rats) was 0.261 ± 0.018 mcq/gram dry tissue. The “Swimming time Before” value ([2]; untrained rats) was 65 ± 5.0 min, the “Glycogen in m. quadriceps, After work” value ([2]; untrained rats) was 450 ± 28.3 and the “Glycogen in m. quadriceps, In rest” value ([2]; untrained rats) was 829 ± 42.0. The “Swimming time After 6 mo.” value ([2]; untrained rats) was 70 ± 4.0 min, the “HEART RATE” value ([2]; untrained, after 6 months) was 452 ± 8.6 beats per minute and the PQ ([2]; untrained, after 6 months) was 0.054 ± 0.003. For the same compound, the QRS ([2]; untrained, after 6 months) was 0.026 ± 0.003, the QT ([2]; untrained, after 6 months) was 0.06 ± 0.001 and the “Systolic Index” value ([2]; untrained, after 6 months) was 42.5 ± 9.7. For the same compound, the ΣR ([2]; untrained, after 6 months) was 14 ± 0.7 mm, the Swimming lengths ([3]; 12.5 mg/kg BW daily for 14 days intragastrically, within 30 minutes, control 24.9) was 33.9 and the “increase in number of swimming lengths” value ([3]; 12.5 mg/kg/body weight daily, 14 days) was 35.4%. The Swimming lengths ([3]; 25 mg/kg BW, 14 days) was 46.4, the “increase in number of swimming lengths” value ([3]; 25 mg/kg/body weight daily, 14 days) was 85.6% and the Swimming lengths ([3]; 50 mg/kg BW, 14 days) was 39.6. The “increase in number of swimming lengths” value ([3]; 50 mg/kg/body weight daily, 14 days) was 58.5%, the Swimming lengths ([3]; 100 mg/kg BW, 14 days) was 31.1 and the “increase in number of swimming lengths” value ([3]; 100 mg/kg/body weight daily, 14 days) was 24.3%. The “mean decrease of hepatic glycogen stores during the swimming exercise” value ([3]; controls 67.5% from baseline) was 24.5% and the “increased hepatic glycogen content” value ([3]; inosine 25 mg/kg, potassium orotate 50 mg/kg, or combination) was 21%.
